Data published in article PMC9968064, “First Synthesis of DBU-Conjugated Cationic Carbohydrate Derivatives and Investigation of Their Antibacterial and Antifungal Activity” (International Journal of Molecular Sciences, 2023).
Entries after “also recorded” stand apart in the source; their conditions may differ.

How the values were obtained:
Assay type in all cases: cell-based
[1] = tested on: Escherichia coli (ATCC 8739); assay: MIC determination (antibacterial susceptibility test, CLSI / Hungarian Pharmacopeia); conditions: for MIC: Escherichia coli, ATCC8739, tested range 6.25–100 µg/mL; for MIC Escherichia coli (ATCC 8739): tested range 6.25–100 µg/mL
Protocol: (§1) The antimicrobial activity of twenty-two cationic hexopyranoside-amidinium salts (3, 10, 11, 12, 21, 22, 23, 24, 29, 30, 32, 37, 38, 45, 46, 47, 48, 49, 50, 51, 52 and 53) were compared in susceptibility tests (Table 2). The effectiveness of all compounds was tested on Staphylococcus aureus ssp. aureus (ATCC 6538), Escherichia coli (ATCC 8739) and Candida albicans (ATCC 10231). We tested the antimicrobial activity of the compounds at the concentration range of 6.25–100 µg/mL.
(§2) The detection of the antibacterial and antifungal effects of the tested compounds and the determination of the minimum inhibitory concentration (MIC) were carried out based on the method of CLSI [48] and Hungarian Pharmacopeia (chapters VIII. 2.6.12–13.).
(§3) For the antimicrobial studies, we used three human pathogens as test organisms: Candida albicans (ATCC 10231), Staphylococcus aureus subspecies aureus (ATCC 6538) and Escherichia coli (ATCC 8739).
(§4) Staphylococcus aureus subspecies aureus and Escherichia coli were cultured on tryptic soya agar (TSA) for 18–24 h at 37 °C. Candida albicans was cultured on Sabouraud dextrose agar (SDA) for 18–24 h at 37 °C. To obtain cells for suspension, we made cell suspensions from Staph. aureus, E. coli and C. albicans with the cotton swab suspension technique. The dilution of suspension was then made with 0.85% NaCl solution, absorbance being set to A600nm = 0.06. a volume of 10 μL of these suspensions contained ~4.5–6.0 × 10^4 colony forming unit (CFU) (bacteria) and ~1.5–2.0 × 10^3 CFU for yeast.
(§5) Tested agents were diluted with DMSO; the concentration of stock solutions was 4 mg/mL; and to ensure sterility, the closed sample containers were incubated at 35 °C for 1 h. The highest final concentration was 100 μg/mL.
(§6) Testing was performed in 24-well plates, and cell suspensions were prepared with 0.85% NaCl solution. Stock solutions were made from the agents with DMSO (100%). Final concentrations of used compounds were 6.25–100 µg/mL. […] After inoculation, plates were incubated at 35 °C, and results were then read visually after 18–24 h. If microbial growth could not be detected, results were read visually after 72 h. If there was no growth after 72 h, incubation was continued till the fifth day of the experiment and the results were read visually and with plate reader at 600 nm after 120 h.
(§7) The MIC value of a compound was defined as the minimal concentration that inhibits the growth of bacteria and yeasts comparing to the control. The results of the antibacterial and antifungal tests were read visually after 24, 48, 72 and 120 h. The microbial growth was measured by plate reader at 600 nm after 120 h.

[2] = tested on: Staphylococcus aureus ssp. aureus (ATCC 6538); assay: as above; conditions: for MIC: Staphylococcus aureus, ATCC6538, tested range 6.25–100 µg/mL; for MIC Staphylococcus aureus (ATCC 6538): tested range 6.25–100 µg/mL
Protocol: as §1, §2, §3, §4, §5, §6, §7

[3] = tested on: HaCaT (human keratinocyte) cell line; assay: MTT viability test on HaCaT cells; conditions: 24 h; for IC50: Homo sapiens, HaCaT, 50–3.125 µg/mL
Protocol: The cytotoxic effect of six selected compounds (3, 10, 12, 21, 22 and 29) with promising antimicrobial activity was studied on HaCaT (human keratinocyte) cell lines. Using the MTT-test, we determined the viability of the cells (Figure 3), and the half maximal inhibitory concentration (IC50) values of the compounds are summarized in Table 4. The duration of tests was 24 h; the examined concentrations were: 50–25–12.5–6.25–3.125 µg/mL. The IC50 value of a compound was defined as the concentration that inhibits cell growth by 50% relative to the control. […], the medium containing the inhibitor was removed, and 10 μL MTT solution was added to the cells. The plates were then incubated for two hours at 37 °C. The medium from the wells was then carefully aspirated, and MTT formazan dissolved with 100 μL of DMSO aided by gentle agitation on a shaker. After 10 min at room temperature, the absorbances were read at 570 nm by an automatic plate reader. The percentage of viability reflecting the respiratory potential of the cell population in each well was expressed as (absorbance of treated cells/absorbance of control cells) × 100. IC50 values of tested agents were determined by Graphpad (Prism) semi-log line fitting (graphpad.com (8)). The MTT test was performed after treatment and removal of inhibitors followed by the addition of 10 μL of MTT solution to the cells. We tested the toxic effect of compounds 3, 10, 12, 21, 22 and 29 on HaCaT cell line. HaCaT is a spontaneously transformed, aneuploid keratinocyte, an adherent cell type derived from the epithelium of Human […] adult skin. The cell line was immortalized in 1986 under low calcium and high-temperature conditions. Cells were cultured in DMEM medium (iBiotech, Szigetszentmiklós, Hungary) containing 10% fetal bovine serum (FBS, iBiotech, Szigetszentmiklós, Hungary) and 1% antibiotic-antimycotic mix (Penicillin–Streptomycin–Neomycin).

[4] = tested on: Candida albicans (ATCC 10231); assay: MIC determination (antifungal susceptibility test); conditions: Candida albicans, ATCC10231, tested range 6.25–100 µg/mL; read-out: MIC Candida albicans (ATCC 10231)
Protocol: as §1, §2, §3, §4, §5
as §6, with “Final concentrations of used compounds were 6.25–100 µg/mL.” left out
as §7

`CCS[C@H]1O[C@H](C[N+]2=C3CCCCCN3CCC2)[C@@H](OCc2ccc3ccccc3c2)[C@H](OC(=O)c2ccccc2)[C@H]1OCc1ccccc1` [Compound 12] was tested, and the MIC [1] was over 100 µg/mL, the MIC [2] was under 6.25 µg/mL and the “cytotoxic effect on HaCaT cells (in words)” value [3] was “significant toxic effect; also recorded: cytotoxic”. It also gave an IC50 [3] of 4.26 ± 0.16 µg/mL.
For `c1ccc(CO[C@H]2[C@H](OCc3ccccc3)[C@@H](Sc3ccccc3)O[C@H](C[N+]3=C4CCCCCN4CCC3)[C@H]2OCc2ccc3ccccc3c2)cc1` [Compound 37], the MIC [4] was over 100 µg/mL and the MIC [1] was over 100 µg/mL.
Work on `O[C@H]1[C@@H](OCc2ccccc2)[C@H](OCc2ccc3ccccc3c2)[C@@H](C[N+]2=C3CCCCCN3CCC2)O[C@@H]1Sc1ccccc1` [Compound 53, 8-N-[phenyl 3-O-benzyl-6-deoxy-6-yl-4-O-(2′-naphthyl)methyl-1-thio-α-D-mannopyranoside]-1,8-diazabicyclo(5.4.0)undec-7-ene-acetate] yielded an MIC [4] of 6.25 to 50 µg/mL, an MIC [1] of over 100 µg/mL and an MIC [2] of 6.25 to 50 µg/mL.
Compound `O=C(O[C@@H]1[C@H](OC(=O)c2ccccc2)[C@@H](Sc2ccccc2)O[C@H](C[N+]2=C3CCCCCN3CCC2)[C@H]1OCc1ccc2ccccc2c1)c1ccccc1` [Compound 23] has an MIC [4] of over 100 µg/mL, an MIC [1] of over 100 µg/mL and an MIC [2] of over 100 µg/mL.
With `CO[C@H]1O[C@H](C[N+]2=C3CCCCCN3CCC2)[C@@H](OCc2ccccc2)[C@H](O)[C@H]1O` [Compound 45, 8-N-[methyl 6-deoxy-6-yl-4-O-benzyl-α-D-glucopyranoside]-1,8-diazabicyclo(5.4.0)undec-7-ene-chloride] the MIC [4] was over 100 µg/mL, the MIC [1] was over 100 µg/mL and the “MIC Escherichia coli (ATCC 8739)” value [1] was over 100 µg/mL. For the same compound, the MIC [2] was over 100 µg/mL and the “MIC Staphylococcus aureus (ATCC 6538)” value [2] was over 100 µg/mL.
For `O=C(O[C@H]1[C@H](OC(=O)c2ccccc2)[C@@H](Sc2ccccc2)O[C@H](C[N+]2=C3CCCCCN3CCC2)[C@H]1OCc1ccc2ccccc2c1)c1ccccc1` [Compound 38], the MIC [4] was over 100 µg/mL, the MIC [1] was over 100 µg/mL and the “MIC Escherichia coli (ATCC 8739)” value [1] was over 100 µg/mL. For the same compound, the MIC [2] was over 100 µg/mL and the “MIC Staphylococcus aureus (ATCC 6538)” value [2] was over 100 µg/mL.
In the case of `c1ccc(CO[C@H]2[C@@H](OCc3ccc4ccccc4c3)[C@H](OCc3ccccc3)[C@@H](C[N+]3=C4CCCCCN4CCC3)O[C@@H]2Sc2ccccc2)cc1` [Compound 21], the MIC [1] is reported as over 100 µg/mL, the MIC [2] is reported as 6.25 to 50 µg/mL and the “cytotoxic effect on HaCaT cells (in words)” value [3] is reported as “significant toxic effect; also recorded: cytotoxic”. It also gave an IC50 [3] of 1.02 ± 0.06 µg/mL.
In the case of `CCS[C@H]1O[C@H](C[N+]2=C3CCCCCN3CCC2)[C@@H](OCc2ccc3ccccc3c2)[C@H](OC(=O)c2ccccc2)[C@H]1OC(=O)c1ccccc1` [Compound 11], the MIC [4] is reported as over 100 µg/mL, the MIC [1] is reported as over 100 µg/mL and the “MIC Escherichia coli (ATCC 8739)” value [1] is reported as over 100 µg/mL. The MIC [2] was over 100 µg/mL and the “MIC Staphylococcus aureus (ATCC 6538)” value [2] was over 100 µg/mL.
Work on `O=C(O[C@H]1[C@@H](OCc2ccccc2)[C@H](O)[C@@H](C[N+]2=C3CCCCCN3CCC2)O[C@@H]1Sc1ccccc1)c1ccccc1` [Compound 52, 8-N-[phenyl 2-O-benzoyl-3-O-benzyl-6-deoxy-6-yl-1-thio-α-D-mannopyranoside]-1,8-diazabicyclo(5.4.0)undec-7-ene-chloride] yielded an MIC [4] of over 100 µg/mL, an MIC [1] of over 100 µg/mL and an MIC [2] of over 100 µg/mL.
Compound `CCS[C@H]1O[C@H](C[N+]2=C3CCCCCN3CCC2)[C@@H](OCc2ccc3ccccc3c2)[C@@H](OC(=O)c2ccccc2)[C@H]1OC(=O)c1ccccc1` [Compound 30] has an MIC [1] of at least 100 µg/mL.
`O[C@H]1[C@H](OCc2ccccc2)[C@H](OCc2ccccc2)[C@@H](Sc2ccccc2)O[C@@H]1C[N+]1=C2CCCCCN2CCC1` [Compound 50, 8-N-[phenyl 2,3-di-O-benzyl-6-deoxy-6-yl-1-thio-α-D-mannopyranoside]-1,8-diazabicyclo(5.4.0)undec-7-ene-chloride] was tested, and the MIC [1] was over 100 µg/mL.
For `O[C@@H]1[C@H](OCc2ccccc2)[C@@H](Sc2ccccc2)O[C@H](C[N+]2=C3CCCCCN3CCC2)[C@H]1OCc1ccccc1` [Compound 49, 8-N-[phenyl 2,4-di-O-benzyl-6-deoxy-6-yl-1-thio-α-D-mannopyranoside]-1,8-diazabicyclo(5.4.0)undec-7-ene-chloride], the MIC [4] was over 100 µg/mL, the MIC [1] was over 100 µg/mL and the “MIC Escherichia coli (ATCC 8739)” value [1] was over 100 µg/mL. The MIC [2] was over 100 µg/mL and the “MIC Staphylococcus aureus (ATCC 6538)” value [2] was over 100 µg/mL.
With `CCS[C@H]1O[C@H](C[N+]2=C3CCCCCN3CCC2)[C@@H](OCc2ccc3ccccc3c2)[C@H](O)[C@H]1O` [Compound 46, 8-N-[ethyl 6-deoxy-6-yl-4-O-(2′-naphthyl)methyl-1-thio-α-D-glucopyranoside]-1,8-diazabicyclo(5.4.0)undec-7-ene-chloride] the MIC [4] was over 100 µg/mL, the MIC [1] was over 100 µg/mL and the “MIC Escherichia coli (ATCC 8739)” value [1] was over 100 µg/mL. For the same compound, the MIC [2] was over 100 µg/mL and the “MIC Staphylococcus aureus (ATCC 6538)” value [2] was over 100 µg/mL.
For `O[C@@H]1[C@H](O)[C@@H](Sc2ccccc2)O[C@H](C[N+]2=C3CCCCCN3CCC2)[C@H]1OCc1ccc2ccccc2c1` [Compound 51, 8-N-[phenyl 6-deoxy-6-yl-4-O-(2′-naphthyl)methyl-1-thio-α-D-mannopyranoside]-1,8-diazabicyclo(5.4.0)undec-7-ene-chloride], the MIC [1] was over 100 µg/mL and the MIC [2] was 6.25 to 50 µg/mL.
For `CCS[C@H]1O[C@H](C[N+]2=C3CCCCCN3CCC2)[C@@H](O)[C@H](OCc2ccccc2)[C@H]1OCc1ccccc1` [Compound 48, 8-N-[ethyl 2,3-di-O-benzyl-6-deoxy-6-yl-1-thio-α-D-glucopyranoside]-1,8-diazabicyclo(5.4.0)undec-7-ene-chloride], the MIC [1] was over 100 µg/mL.
In the case of `CCS[C@H]1O[C@H](C[N+]23CCN(CC2)CC3)[C@@H](OCc2ccc3ccccc3c2)[C@@H](OC(=O)c2ccccc2)[C@H]1OC(=O)c1ccccc1` [Compound 32], the MIC [4] is reported as over 100 µg/mL, the MIC [1] is reported as at least 100 µg/mL and the MIC [2] is reported as 6.25 to 50 µg/mL.
In the case of `O=C(O[C@H]1[C@@H](OCc2ccccc2)[C@H](OCc2ccc3ccccc3c2)[C@@H](C[N+]2=C3CCCCCN3CCC2)O[C@@H]1Sc1ccccc1)c1ccccc1` [Compound 24], the MIC [1] is reported as at least 100 µg/mL and the MIC [2] is reported as 6.25 to 50 µg/mL.
For `CCS[C@H]1O[C@H](C[N+]2=C3CCCCCN3CCC2)[C@@H](O)[C@H](O)[C@H]1O` [Compound 47, 8-N-[ethyl 6-deoxy-6-yl-1-thio-α-D-glucopyranoside]-1,8-diazabicyclo(5.4.0)undec-7-ene-chloride], the MIC [4] was over 100 µg/mL, the MIC [1] was over 100 µg/mL and the “MIC Escherichia coli (ATCC 8739)” value [1] was over 100 µg/mL. For the same compound, the MIC [2] was over 100 µg/mL and the “MIC Staphylococcus aureus (ATCC 6538)” value [2] was over 100 µg/mL.
